99 molecules from PubChem BioAssay AID602234 (The Scripps Research Institute Molecular Screening Center, 2012) can be followed below.

Calls of active or inactive are those of the source. The rule behind the calls is not given here.

The experiment can be described thus: SRC3 coactivator transcriptional activity inhibitors, dose response, counter-screen for SRC1 inhibitor project, cell-based, luminescence (AID 602234).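 Note: HEK293 cells co-transfected with pGL4.31 reporter and pBIND-SRC3 fusion vector; potency for inhibition of reporter luminescence with Gossypol as full inhibition.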 Particulars: transfected HEK293 cells, counter-screen luciferase reporter.
As to `Cn1nc(C(F)(F)F)c(C#N)c1N1CCN(c2ccc(F)cc2)CC1`, the IC50 is 2.13 µM.

As to `O=C(c1ccncc1)N(Cc1cc2ccccc2[nH]c1=O)C1CCCCC1`, the IC50 is 5.34 µM. `COc1cc(/C=C2\SC(N)=NC2=O)cc(OC)c1`: the IC50 is 7.14 µM. The value for `NC(=O)c1cc(Sc2ccccc2)nc2ccccc12` was 10.9 µM (inactive). The value for `O=C(CCl)N1N=C(c2ccco2)CC1c1cccs1` (centres undefined) was 0.694 µM. Consider `COc1ccccc1/C=C\C(=O)NCC(=O)N/N=C/c1cccc(OC)c1O`, for which the IC50 is 12.9 µM (inactive). The value for `Cc1ccc(NC(=O)NC2CC(=O)N(c3ccc4c(c3)OCCO4)C2)cc1C` (centres undefined) was 1.08 µM; that for `COc1cc(C(=O)N/N=C(\c2ccccc2)c2ccccn2)cc(OC)c1OC` was 9.58 µM; that for `Cc1cc(C)nc(SCc2ccc(C(=O)N/N=C/c3cccc(O)c3O)cc2)n1` was 4.72 µM. In the case of `COc1ccccc1CNC(=O)C(=O)NCCC1CCCCN1S(=O)(=O)c1ccc(C)cc1` (centres undefined), the IC50 is 10.2 µM (inactive). Take `O=C(Nc1c(-c2ccccc2)[nH][nH]c1=O)c1cccc(C(F)(F)F)c1`: the IC50 was > 35.8 µM (inactive). As to `Cc1ccc(S(=O)(=O)NC(CC(C)C)C(=O)NCC(c2ccco2)N2CCCCC2)cc1` (centres undefined), the IC50 was 3.11 µM. The value for `COc1cc(C(=O)NC(=S)NNC(=O)c2cnccn2)cc(OC)c1OC` was 3.58 µM; that for `c1cc2[nH]snc2c2nc(C3CC3)nc12` was 1.2 µM. On to `COc1cc(OC)c2cc(C(=O)N/N=C/c3cccc(OC)c3O)[nH]c2c1`, for which the IC50 is 3.56 µM. The value for `c1cnc2ccc(-n3ccnc3)cc2c1` was 7.69 µM; that for `CCOc1ccccc1-n1c(SCC(=O)Nc2ccccc2C(=O)O)nc2ccccc2c1=O` was 9.64 µM. Consider `O=C(OC(c1ccccc1)c1nccc2ccccc12)c1ccccc1` (centres undefined), for which the IC50 is 0.661 µM.

For `COc1ccc(Nc2ncnc3ccc(Br)cc23)c(OC)c1`, the IC50 was 2.75 µM.

Turning to `O=[N+]([O-])c1cccc2c1ccc1ncccc12`, the IC50 was 10.3 µM (inactive). The value for `O=C(O)CN1C(=O)/C(=C\c2ccccc2OCc2ccc(Cl)cc2Cl)SC1=S` was 11 µM (inactive); that for `NC(=S)NN=Cc1nccc2c(N)cccc12` was 4.45 µM; that for `COc1ccc(CNc2ncc(-c3ccc(F)cc3)n2C)c2ccccc12` was 11.6 µM (inactive).

`O=C(Nc1ccncc1)c1ccccc1[N+](=O)[O-]`: the IC50 was 4.77 µM. With `CCCCC(CC)COCCCN=Cc1c(O)[nH]c(=S)[nH]c1=O` (centres undefined), the IC50 is 5.74 µM. As for `CCC(C)(C)n1nnnc1CN1CCC(n2c(C)nc3cc(C(F)(F)F)ccc32)CC1`, the IC50 was > 35.9 µM (inactive). The value for `COc1cc2c3c([nH]c2cc1F)C(=O)NCC3` was 3.73 µM; that for `Cc1nc2c(-c3ccc(Cl)cc3)c(C)[nH]n2c(=O)c1Cc1ccccc1` was 4.49 µM; that for `O=C1CCC2S/C(=C/Nc3ccc(C(F)(F)F)cc3)C(=O)N12` (centres undefined) was 7.25 µM. Take `CCCCC(=O)Nc1cccn2ncnc12`: the IC50 is 10.9 µM (inactive). The value for `COC(CN(C(=O)CCl)C(C(=O)NC1CCCCC1)c1ccccc1C)OC` (centres undefined) was 3.76 µM; that for `O=C(CCCc1nc(-c2ccccc2Cl)no1)NC1CCCC1` was 3.59 µM. Consider `Cc1cc(=O)[nH]c(Nc2cccc(Br)c2)n1`, for which the IC50 was 6.81 µM.

Take `COc1ccccc1N(C(=O)CCl)c1cn(C(C)=O)c2ccccc12`: the concentration for half-maximal inhibition (IC50) was 3.76 µM. For the molecule `O=C(N/N=C/c1ccc(O)cc1O)/C(=C/c1ccccc1)CCO`, the IC50 was 5.37 µM.

Regarding `CCOC(=O)CC(=O)CSc1nccc(-c2cccnc2)n1`, the IC50 was 18.4 µM (inactive). The value for `Cc1nn(C(C)(C)C)c(C)c1/C=N/OC(=O)Nc1ccc(Cl)c(Cl)c1` was 2.09 µM; that for `CS(=O)(=O)Nc1cccc(NC(=O)C2Cc3c(-c4ccco4)ccnc3O2)c1` (centres undefined) was > 12 µM (inactive); that for `CC(=O)N1CCN(c2ccc(Oc3ncnc4sccc34)cc2)CC1` was 4.79 µM.

With `Cc1nn(CC(=O)N2CCN(c3cccc(C(F)(F)F)c3)CC2)c(=O)c2cccn12`, the IC50 is 5.11 µM.

`COc1ccc(/C=C2/SC(=S)N(CCC(=O)O)C2=O)cc1`: the half-inhibitory concentration (IC50) was 1.07 µM. For the molecule `CCCCN(CCCC)c1ncnc2nc[nH]c12`, the IC50 is 2.14 µM.

Regarding `CN(C)C(=O)c1ccc(-c2n[nH]c(=O)c3ccccc23)cc1`, the IC50 is 5.67 µM. The value for `Cc1ccc(OCC(=O)c2cc(C)n(Cc3cccs3)c2C)c([N+](=O)[O-])n1` was 5.23 µM; that for `Cc1nc2ccccn2c1-c1ccnc(=S)[nH]1` was 4.25 µM. The value for `c1ccc(-c2csc3ncnc(NCCN4CCOCC4)c23)cc1` was 8.04 µM; that for `N#Cc1c(-c2ccccc2)c(C#N)c2nc3ccccc3n2c1N` was 21.9 µM (inactive); that for `CC1CCN(C(=O)c2scc3c2OCCO3)CC1` was 10 µM (inactive). With `COc1ccc(-c2cnc(N)nc2-c2ccc(OC)cc2O)cc1`, the 50% inhibitory concentration (IC50) was 7.07 µM. The value for `COc1cccc(C2=CC(=O)CC(C)(C)C2)c1` was 6.27 µM; that for `COc1ccc2c(=O)cc(-c3ccncc3)oc2c1OC` was 3.16 µM; that for `Cc1ccc(N(Cc2cc(=O)[nH]c3ccccc23)C(=O)CCl)c(C)c1` was 2.67 µM. For `O=C1NCCc2c1[nH]c1ccc([N+](=O)[O-])cc21`, the IC50 was 8.25 µM.

Take `c1nc2sc3c(c2c2nnnn12)CCCC3`: the IC50 is 9.84 µM. The value for `CCOC(=O)c1c(NC(=O)C(C)N2CCN(C(=O)c3ccco3)CC2)sc2c1CCCC2` (centres undefined) was 9.89 µM; that for `O=C1CCC/C1=c1\s/c(=C/c2cccnc2)c(=O)n1-c1ccccc1` was 6.2 µM; that for `COC(=O)c1sc2cnccc2c1N` was 8.34 µM. The value for `CCOC(=O)CSc1cc(-c2ccccc2)nc2ncnn12` was > 35.9 µM (inactive); that for `Cc1sc2ncnc(N3CCC(C(=O)N(C)CC(=O)Nc4cccc(F)c4)CC3)c2c1C` was 8.1 µM; that for `COc1ccc(C(O)(C(C)C)C(CN2CCOCC2)c2ccc(Cl)cc2)cc1` (centres undefined) was 13.4 µM (inactive).

Consider `COc1ccc(Nc2ncnc3ccc(C)cc23)cc1`, for which the half-maximal inhibitory concentration (IC50) was 2.62 µM. The value for `COc1cc(C2c3cc4c(cc3C(OC3OC5COC(c6cccs6)OC5C(O)C3O)C3COC(=O)C23)OCO4)cc(OC)c1O` (centres undefined) was 0.0913 µM; that for `Cc1sc2ncnc(N3CCC(C(=O)Nc4cc(S(C)(=O)=O)ccc4Cl)CC3)c2c1C` was 10.1 µM (inactive).

Turning to `CCCS(=O)(=O)c1c(S(=O)(=O)CCC)c2c(C)cccn2c1C(=O)N/N=C/c1cc(O)cc(O)c1`, the IC50 is 10.2 µM (inactive). The value for `NS(=O)(=O)c1ccc(Nc2nc(-c3cccnc3)cs2)cc1` was 6.23 µM; that for `Cc1ccccc1C(=O)/C(C#N)=N/Nc1c(C)n(C)n(-c2ccccc2)c1=O` was 3.53 µM. The value for `CCCS(=O)(=O)Nc1ccc(Nc2c3ccccc3nc3ccccc23)c(OC)c1` was 1.01 µM. The value for `Cc1ccc(NC(=O)CCC(=O)N/N=C/c2ccc(O)cc2O)cc1` was 13.5 µM (inactive).

As for `N#Cc1cc2ccncc2c2ccccc12`, the IC50 was 4.76 µM. The value for `O=[N+]([O-])c1ccc2c(c1)-c1ccccc1C2=NO` was 3.34 µM. Take `Cc1ccc2occ(/C=N/NC(=O)[C@@H](N)Cc3ccccc3)c(=O)c2c1`: the IC50 is 6.9 µM. As to `Cc1ccc(S(=O)(=O)Nc2c(NC3CCCCC3)c3ccccc3oc2=O)c(C)c1`, the IC50 was 23.1 µM (inactive). The value for `C=CCc1ccccc1OCC(=O)N/N=C/c1ccc(OC(C)=O)cc1OC(C)=O` was 22.4 µM (inactive); that for `COc1ccc2ncn(-c3ccccc3)c2c1` was 2.99 µM. The value for `CCOc1ccc(-c2noc(CCC(=O)O)n2)cc1` was 15.2 µM (inactive); that for `CC(=O)/C(N=Nc1ccc2c(c1)OCCO2)=C(\C)O` was 3.11 µM. The value for `O=C(NC1CCCCC1)C(c1cccnc1)N(C(=O)CCl)c1cccc(Cl)c1` (centres undefined) was 0.503 µM; that for `OCCN1CCN(C(=S)c2ccc(-c3ccccc3)cc2)CC1` was 1.28 µM. For the molecule `COc1ccc(Cc2nnc(SCc3ccc([N+](=O)[O-])cc3)o2)cc1`, the IC50 was 5.53 µM. As for `Fc1ccc(CSc2nnc(-c3ccncc3)o2)cc1`, the IC50 is 2.69 µM.

Regarding `Cc1nc(N2CCC(C(N)=O)CC2)c2c(-c3cccs3)csc2n1`, the IC50 is 3.31 µM. As for `Nc1ncccc1C(=O)OCC(=O)N1CCN(S(=O)(=O)c2ccc(Cl)cc2)CC1`, the half-maximal inhibitory concentration (IC50) is 8.27 µM. The value for `CC(NC(=O)COC(=O)c1cccs1)c1ccccc1` (centres undefined) was > 35.9 µM (inactive); that for `O=C(CCl)N(c1ccccc1)C1CCS(=O)(=O)C1` (centres undefined) was 1.74 µM; that for `CCN(C(=O)c1cc(S(=O)(=O)N2CCCCC2)c[nH]1)c1ccc(OC)cc1` was 8 µM. The value for `CCOC(=O)c1cccc2c1-c1ccccc1/C2=N/O` was 3.73 µM; that for `Cn1nc(C(F)(F)F)c(C#N)c1N1CCN(c2ccccc2)CC1` was 4.13 µM. Take `O=C1c2cccc(OCc3ccc(F)cc3)c2CCN1Cc1ccccc1`: the IC50 was 4.15 µM.

For `COc1ccc(/C=C2\CC/C(=C\c3ccc(OC)c(OC)c3)C2=O)cc1OC`, the IC50 is 5.96 µM. The value for `Nc1ccn(C2OC(CO)C(O)C2O)c(=O)n1` (centres undefined) was 6.77 µM.

`CN(CC(=O)Nc1ccc(Cl)c(C(F)(F)F)c1)C(=O)C1CC(=O)N(c2ccc3c(c2)OCCO3)C1` (centres undefined): the IC50 was 7.04 µM. The value for `CC1CCCCN1c1ncnc2ccccc12` (centres undefined) was 8.39 µM; that for `CCOc1ccc(/C=C2\SC(=S)N(CCCC(=O)NCCCN3CCOCC3)C2=O)cc1` was 5.91 µM; that for `Cc1cccc(C)c1-c1ccc(CN2C(CC(C)C)C(=O)N(Cc3cn(CC4CCCCC4)nn3)CCS2(=O)=O)cc1` (centres undefined) was 8.2 µM. The value for `CN(C)C=Nc1c(C(=O)c2ccccc2)sc2nccc(N(C)C)c12` was 6.82 µM. The value for `CCCc1cc(C(=O)N(C)CC(=O)Nc2ccc(OCC)c(OCC)c2)sc1C` was > 35.9 µM (inactive); that for `Cc1cccn2c(=O)c3cc(C(=O)NCCN4CCOCC4)c(=N)n(Cc4cccnc4)c3nc12` was 12.7 µM (inactive); that for `CCn1c(Oc2ccc(F)cc2)nc2c1c(=O)n(C)c(=O)n2C` was 3.24 µM. For `COc1ccc(Oc2nc3c(c(=O)n(C)c(=O)n3C)n2C)cc1`, the IC50 was 7.76 µM.
